According to US7538112B2, “HIV integrase inhibitors” (Merck & Co., Inc., priority 2004, dated 2009):

The compounds below were run on viruses containing mutations in the integrase gene (T66I/S153Y, N155S, and F121Y) (assay: Sensitivity of viruses containing integrase mutations associated with resistance to other integrase inhibitors).
Type: cell-based, HIV
From the text: In preclinical laboratory experiments, it has been possible to select viruses resistant to integrase inhibitors in structural classes other than those embraced by the present invention, such as diketo acids, naphthyridine carboxamides, and dihydropyrimidine carboxamides. Mutations in the integrase gene that confer resistance (defined herein as greater than or equal to a 10-fold loss of sensitivity) to such compounds include T66I/S153Y, N155S, and F121Y. Certain compounds of the present invention have less than a 10-fold loss in sensitivity against viruses containing these and other mutations associated with resistance to other integrase inhibitors, and thus can be effective inhibitors of such viruses. Compounds of the present invention which are effective against such viruses include, for example, the compounds of Examples 37, 50, 56, 62, 69, 86, 87, 88, 151, 153, 159-A, 159-B, 166, 189, 193, and 205.
For `CCN1CC(CO)n2c(c(O)c3c(=O)n(Cc4ccc(F)cc4)nc(C)c32)C1=O` (racemic) [Example 56, 8-Ethyl-2-(4-fluorobenzyl)-10-hydroxy-4-methyl-6-(hydroxymethyl)-7,8-dihydropyrazino[1′,2′:1,5]pyrrolo[2,3-d]pyridazine-1,9(2H,6H)-dione], the “effective against viruses with integrase resistance mutations” value (shortened to “effective against viruses”) was “effective”.
`CCN1CC(C)n2c(c(O)c3c(=O)n(Cc4ccc(F)c(Cl)c4)nc(N(CC)S(C)(=O)=O)c32)C1=O` (racemic) [Example 159-B, N-[2-(3-Chloro-4-fluorobenzyl)-10-hydroxy-8-ethyl-6-methyl-1,9-dioxo-1,2,6,7,8,9-hexahydropyrazino[1′,2′:1,5]pyrrolo[2,3-d]pyridazin-4-yl]-N-ethylmethanesulfonamide] was tested, and the “effective against viruses” value was “effective”.
In the case of `Cc1nn(Cc2ccc(F)cc2)c(=O)c2c(O)c3n(c12)C(C)CN(C)C3=O` (stereo not shown) [Example 37, 2-(4-Fluorobenzyl)-10-hydroxy-4,6,8-trimethyl-7,8-dihydropyrazino[1′,2′:1,5]-pyrrolo[2,3-d]pyridazine-1,9(2H,6H)-dione], the “effective against viruses” value is reported as “effective”.
With `Cc1nn(Cc2ccc(F)cc2)c(=O)c2c(O)c3n(c12)[C@@H](C)CN(C(C)C)C3=O` [Example 50, 6(S)-2-(4-Fluorobenzyl)-10-hydroxy-8-isopropyl-4,6-dimethyl-7,8-dihydropyrazino[1′,2′:1,5]pyrrolo[2,3-d]pyridazine-1,9(2H,6H)-dione] the “effective against viruses” value was “effective”.
`CCN1C[C@H](C)n2c(c(O)c3c(=O)n(Cc4ccc(F)c(Cl)c4)nc(C(=O)NC)c32)C1=O` [Example 62, 6(S)-2-(3-Chloro-4-fluorobenzyl)-8-ethyl-10-hydroxy-N,6-dimethyl-1,9-dioxo-1,2,6,7,8,9-hexahydropyrazino[1′,2′:1,5]pyrrolo[2,3-d]pyridazine-4-carboxamide] was tested, and the “effective against viruses” value was “effective”.
For `CCNC(=O)c1nn(Cc2ccc(F)c(Cl)c2)c(=O)c2c(O)c3n(c12)CCN(C)C3=O` [Example 69, 2-(3-Chloro-4-fluorobenzyl)-N-ethyl-10-hydroxy-8-methyl-1,9-dioxo-1,2,6,7,8,9-hexahydropyrazino[1′,2′:1,5]pyrrolo[2,3-d]pyridazine-4-carboxamide], the “effective against viruses” value was “effective”.
`CCNC(=O)c1nn(Cc2ccc(F)c(Cl)c2)c(=O)c2c(O)c3n(c12)[C@@H](C)CN(C(C)C)C3=O` [Example 86, 6(S)-2-(3-Chloro-4-fluorobenzyl)-10-hydroxy-8-isopropyl-N-ethyl-6-methyl-1,9-dioxo-1,2,6,7,8,9-hexahydropyrazino[1′,2′:1,5]pyrrolo[2,3-d]pyridazine-4-carboxamide] was tested, and the “effective against viruses” value was “effective”.
In the case of `CCNC(=O)c1nn(Cc2ccc(F)cc2)c(=O)c2c(O)c3n(c12)[C@@H](C)CN(C(C)C)C3=O` [Example 87, 6(S)-2-(4-Fluorobenzyl)-10-hydroxy-8-isopropyl-N-ethyl-6-methyl-1,9-dioxo-1,2,6,7,8,9-hexahydropyrazino[1′,2′:1,5]pyrrolo[2,3-d]pyridazine-4-carboxamide], the “effective against viruses” value is reported as “effective”.
`CC(C)N1C[C@H](C)n2c(c(O)c3c(=O)n(Cc4ccc(F)c(Cl)c4)nc(C(=O)N(C)C)c32)C1=O` [Example 88, 6(S)-2-(3-Chloro-4-fluorobenzyl)-10-hydroxy-8-isopropyl-N,N,6-trimethyl-1,9-dioxo-1,2,6,7,8,9-hexahydropyrazino[1′,2′:1,5]pyrrolo[2,3-d]pyridazine-4-carboxamide] was tested, and the “effective against viruses” value was “effective”.
In the case of `CCN1C[C@H](C)n2c(c(O)c3c(=O)n(Cc4ccc(F)c(Cl)c4)nc(N(C)S(C)(=O)=O)c32)C1=O` [Example 151, N-[(6S)-2-(3-Chloro-4-fluorobenzyl)-10-hydroxy-8-ethyl-6-methyl-1,9-dioxo-1,2,6,7,8,9-hexahydropyrazino[1′,2′:1,5]pyrrolo[2,3-d]pyridazin-4-yl]-N-methylmethanesulfonamide], the “effective against viruses” value is reported as “effective”.
`CC(C)N1C[C@H](C)n2c(c(O)c3c(=O)n(Cc4ccc(F)c(Cl)c4)nc(N(C)S(C)(=O)=O)c32)C1=O` [Example 153, N-[(6S)-2-(3-Chloro-4-fluorobenzyl)-10-hydroxy-8-isopropyl-6-methyl-1,9-dioxo-1,2,6,7,8,9-hexahydropyrazino[1′,2′:1,5]pyrrolo[2,3-d]pyridazin-4-yl]-N-methylmethanesulfonamide] was tested, and the “effective against viruses” value was “effective”.
`CC(C)N1C[C@H](C)n2c(c(O)c3c(=O)n(Cc4ccc(F)cc4)nc(N(C)S(C)(=O)=O)c32)C1=O` [Example 159-A, N-[(6S)-2-(4-Fluorobenzyl)-10-hydroxy-8-isopropyl-6-methyl-1,9-dioxo-1,2,6,7,8,9-hexahydropyrazino[1′,2′:1,5]pyrrolo[2,3-d]pyridazin-4-yl]-N-methylmethanesulfonamide] was tested, and the “effective against viruses” value was “effective”.
For `CCN1C[C@H](C)n2c(c(O)c3c(=O)n(Cc4ccc(F)c(Cl)c4)nc(S(=O)(=O)CC)c32)C1=O` [Example 166, 6(S)-2-(3-Chloro-4-fluorobenzyl)-8-ethyl-10-hydroxy-4-(ethylsulfonyl)-6-methyl-7,8-dihydropyrazino[1′,2′:1,5]pyrrolo[2,3-d]pyridazine-1,9(2H,6H)-dione], the “effective against viruses” value was “effective”.
For `CCN1C[C@H](C)n2c(c(O)c3c(=O)n(Cc4ccc(F)c(Cl)c4)ncc32)C1=O` [Example 189, 6(S)-2-(3-Chloro-4-fluorobenzyl)-10-hydroxy-8-ethyl-6-methyl-7,8-dihydropyrazino[1′,2′:1,5]pyrrolo[2,3-d]pyridazine-1,9(2H,6H)-dione], the “effective against viruses” value was “effective”.
With `CC(C)N1C[C@H](C)n2c(c(O)c3c(=O)n(Cc4ccc(F)cc4)ncc32)C1=O` [Example 193, 6(S)-2-(4-Fluorobenzyl)-10-hydroxy-8-isopropyl-6-methyl-7,8-dihydropyrazino[1′,2′:1,5]pyrrolo[2,3-d]pyridazine-1,9(2H,6H)-dione] the “effective against viruses” value was “effective”.
In the case of `CCN1CC(CO)n2c(c(O)c3c(=O)n(Cc4ccc(F)cc4)ncc32)C1=O` (stereo not shown) [Example 205, 2-(4-Fluorobenzyl)-10-hydroxy-8-ethyl-6-hydroxymethyl-7,8-dihydropyrazino[1′,2′:1,5]pyrrolo[2,3-d]pyridazine-1,9(2H,6H)-dione], the “effective against viruses” value is reported as “effective”.
